Measured values reported in US12285407B2, “Bis-indolylmethane derivatives and uses thereof” (The University of The West Indies, priority 2018, dated 2025).
Converted amounts (≈) assume the structure as drawn. Like-named read-outs stand apart in the source and are kept apart here.

What was measured:
Pseudomonas aeruginosa = assay: Adjuvant broth microdilution (antibiotic MIC with SP-BIM at 50 μg/mL); format: cell-based; conditions: antibiotic alone
Klebsiella pneumoniae = assay: as above; format: cell-based; conditions: for MIC of antibiotic, No Compound: Klebsiella pneumonia, no SP-BIM; for MIC: Klebsiella pneumoniae, read-out: MIC of antibiotic, No compound
Enterococcus faecium = assay: Checkerboard synergy (FICI) of antibiotics with SP-BIM; format: cell-based; conditions: Enterococcus faecium; for MIC: 24 h, read-out: MIC antibiotic only; for MIC in combination, SP-BIM 9: SP-BIM 9 concentration in combination with the labelled antibiotic; for FIC of SP-BIM 9: SP-BIM 9 in combination with the labelled antibiotic; for FIC of SP-BIM 13: SP-BIM 13 in combination with the labelled antibiotic
Escherichia coli O157:H7 = assay: Rescue concentrations of SP-BIM that reactivate antibiotic; format: cell-based; conditions: for MIC: Escherichia coli
[1] = system: clinical strains of Enterococcus faecium; assay: Kirby Bauer disc diffusion susceptibility profile; format: cell-based; conditions: for Zone of clearance: 35° C., 24 hours, average n=3; for Interpretive standard (resistant/susceptible): zones vs EUCAST breakpoints (Table 31)
MRSA = assay: Adjuvant broth microdilution (antibiotic MIC with SP-BIM at 50 μg/mL); format: cell-based, Staphylococcus aureus
clinical strains of MRSA = assay: Kirby Bauer disc diffusion susceptibility profile; format: cell-based, Staphylococcus aureus; conditions: for Zone of clearance: 35° C., 24 hours, average n=3; for Interpretive standard (resistant/susceptible): zones vs EUCAST breakpoints (Table 30)
MRSA HS 10132 = assay: Systemic non-lethal MRSA infection in mice (organ MRSA load); format: in vivo
[2] = antibiotic alone, SP-BIM 13 checkerboard
[3] = antibiotic in combination with SP-BIM 9
[4] = antibiotic in combination with SP-BIM 13

SMILES: CN[C@H](CC(C)C)C(=O)N[C@H]1C(=O)N[C@@H](CC(N)=O)C(=O)N[C@H]2C(=O)N[C@H]3C(=O)N[C@H](C(=O)N[C@H](C(=O)O)c4cc(O)cc(O)c4-c4cc3ccc4O)[C@H](O)c3ccc(c(Cl)c3)Oc3cc2cc(c3O[C@@H]2O[C@H](CO)[C@@H](O)[C@H](O)[C@H]2O[C@H]2C[C@](C)(N)[C@H](O)[C@H](C)O2)Oc2ccc(cc2Cl)[C@H]1O [Vancomycin, vancomycin]
- MIC of antibiotic, No Compound (Pseudomonas aeruginosa): >250 µg/mL
- MIC of antibiotic, No Compound (Klebsiella pneumoniae; antibiotic alone): >250 µg/mL
- MIC (Klebsiella pneumoniae): > 250 µg/mL
- MIC (Enterococcus faecium): 16 µg/mL
- MIC in combination, SP-BIM 9 (Enterococcus faecium): 64 µg/mL
- FIC of SP-BIM 9 (Enterococcus faecium): 0.3
- FIC of SP-BIM 13 (Enterococcus faecium): 0.5
- Interpretation (Enterococcus faecium; antibiotic + SP-BIM 9): Synergy (Synergy: FICI≤0.5)
- Σ FIC (Enterococcus faecium; antibiotic + SP-BIM 9): ≤0.31
- Interpretation (Enterococcus faecium; antibiotic + SP-BIM 13): Additive (Additive: FICI>0.5-1.0)
- Σ FIC (Enterococcus faecium; antibiotic + SP-BIM 13): <1.0
- MIC antibiotic only (Enterococcus faecium; [2]): 16 µg/mL
- MIC in combination, Antibiotic (Enterococcus faecium; [3]): 0.2 µg/mL
- MIC in combination, Antibiotic (Enterococcus faecium; [4]): 8 µg/mL
- FIC of antibiotic (Enterococcus faecium; in combination with SP-BIM 9): 0.013
- FIC of antibiotic (Enterococcus faecium; in combination with SP-BIM 13): 0.5
- MIC (Escherichia coli O157:H7; read-out: MIC (single agent)): 250 µg/mL (≈ 173 µM)
- Zone of clearance ([1]; E. faecium strain 15134): 12 mm
- Interpretive standard (resistant/susceptible) ([1]; E. faecium strain 15134): S
- Zone of clearance ([1]; E. faecium strain 21024): 9 mm
- Interpretive standard (resistant/susceptible) ([1]; E. faecium strain 21024): R
- Zone of clearance ([1]; E. faecium strain 21955): 15 mm
- Interpretive standard (resistant/susceptible) ([1]; E. faecium strain 21955): S
- Zone of clearance ([1]; E. faecium strain 22003): 16 mm
- Interpretive standard (resistant/susceptible) ([1]; E. faecium strain 22003): S
- Zone of clearance ([1]; E. faecium strain 22870): 10 mm
- Interpretive standard (resistant/susceptible) ([1]; E. faecium strain 22870): R
- Zone of clearance ([1]; E. faecium strain 23227): 9 mm
- Interpretive standard (resistant/susceptible) ([1]; E. faecium strain 23227): R
- Zone of clearance ([1]; E. faecium strain 23230): 5 mm
- Interpretive standard (resistant/susceptible) ([1]; E. faecium strain 23230): R
- Zone of clearance ([1]; E. faecium strain 23668): 10 mm
- Interpretive standard (resistant/susceptible) ([1]; E. faecium strain 23668): R
- Zone of clearance ([1]; E. faecium strain 24169): 10 mm
- Interpretive standard (resistant/susceptible) ([1]; E. faecium strain 24169): R
- Zone of clearance ([1]; E. faecium strain RC63): 8 mm
- Interpretive standard (resistant/susceptible) ([1]; E. faecium strain RC63): R
- MIC (MRSA; Staphylococcus aureus, read-out: MIC of antibiotic, No compound): 4 µg/mL
- MIC of antibiotic, No Compound (MRSA; antibiotic alone, Table 8 (series SP-BIMs 21-29)): 2 µg/mL

SMILES: CC1(C)S[C@@H]2[C@H](NC(=O)[C@H](N)c3ccccc3)C(=O)N2[C@H]1C(=O)O [Ampicillin, ampicillin]
- MIC of antibiotic, No Compound (Pseudomonas aeruginosa): >250 µg/mL
- Zone of clearance (clinical strains of MRSA; MRSA strain 1594): 13.0 mm
- Interpretive standard (resistant/susceptible) (clinical strains of MRSA; MRSA strain 1594): R
- Interpretive standard (resistant/susceptible) (clinical strains of MRSA; MRSA strain 1621): R
- Zone of clearance (clinical strains of MRSA; MRSA strain 5455): 14.5 mm
- Interpretive standard (resistant/susceptible) (clinical strains of MRSA; MRSA strain 5455): R
- Zone of clearance (clinical strains of MRSA; MRSA strain 5872): 9.0 mm
- Interpretive standard (resistant/susceptible) (clinical strains of MRSA; MRSA strain 5872): R
- Zone of clearance (clinical strains of MRSA; MRSA strain 7153): 13.5 mm
- Interpretive standard (resistant/susceptible) (clinical strains of MRSA; MRSA strain 7153): R
- Zone of clearance (clinical strains of MRSA; MRSA strain 7172): 14.5 mm
- Interpretive standard (resistant/susceptible) (clinical strains of MRSA; MRSA strain 7172): R
- Zone of clearance (clinical strains of MRSA; MRSA strain 7698): 10.5 mm
- Interpretive standard (resistant/susceptible) (clinical strains of MRSA; MRSA strain 7698): R
- Zone of clearance (clinical strains of MRSA; MRSA strain 10132): 14.0 mm
- Interpretive standard (resistant/susceptible) (clinical strains of MRSA; MRSA strain 10132): R
- MIC of antibiotic, No Compound (Klebsiella pneumoniae; antibiotic alone): >250 µg/mL
- MIC (Klebsiella pneumoniae; antibiotic alone, Table 7): > 250 µg/mL
- MRSA load in the spleen (MRSA HS 10132; ampicillin only ([…] mg kg^−1), SP-BIM 9 study): 14,622 CFU g^−1
- MRSA counts in liver (MRSA HS 10132; ampicillin only ([…] mg kg^−1), subcutaneous): 3500 CFU mL^−1
- MRSA counts in the liver (MRSA HS 10132; ampicillin only, SP-BIM 9 study): 7605 CFU g^−1
- MIC (Enterococcus faecium; antibiotic alone, SP-BIM 9 checkerboard): 250 µg/mL
- MIC (Enterococcus faecium; [2]): 250 µg/mL
- MIC in combination, SP-BIM 9 (Enterococcus faecium): 64 µg/mL
- FIC of SP-BIM 9 (Enterococcus faecium): 0.3
- FIC of SP-BIM 13 (Enterococcus faecium): 0.5
- Interpretation (Enterococcus faecium; antibiotic + SP-BIM 9): Synergy (Synergy: FICI≤0.5)
- Σ FIC (Enterococcus faecium; antibiotic + SP-BIM 9): ≤0.3
- Interpretation (Enterococcus faecium; antibiotic + SP-BIM 13): Additive (Additive: FICI>0.5-1.0)
- Σ FIC (Enterococcus faecium; antibiotic + SP-BIM 13): <0.6
- MIC in combination, Antibiotic (Enterococcus faecium; [3]): 0.1 µg/mL
- MIC in combination, Antibiotic (Enterococcus faecium; [4]): 16 µg/mL
- FIC of antibiotic (Enterococcus faecium; in combination with SP-BIM 9): 0.0
- FIC of antibiotic (Enterococcus faecium; in combination with SP-BIM 13): 0.1
- MIC of Ampicillin in combination with […] SP-BIM 27 (Escherichia coli O157:H7; E. coli O157:H7, with […] SP-BIM 27): 2 µg/mL
- MIC (Escherichia coli O157:H7; read-out: MIC of Ampicillin): 16 µg/mL
- Zone of clearance ([1]; E. faecium strain 15134): 37 mm
- Interpretive standard (resistant/susceptible) ([1]; E. faecium strain 15134): S
- Zone of clearance ([1]; E. faecium strain 21024): 32 mm
- Interpretive standard (resistant/susceptible) ([1]; E. faecium strain 21024): S
- Zone of clearance ([1]; E. faecium strain 21955): 32 mm
- Interpretive standard (resistant/susceptible) ([1]; E. faecium strain 21955): S
- Zone of clearance ([1]; E. faecium strain 22003): 37 mm
- Interpretive standard (resistant/susceptible) ([1]; E. faecium strain 22003): S
- Zone of clearance ([1]; E. faecium strain 22870): 10 mm
- Interpretive standard (resistant/susceptible) ([1]; E. faecium strain 22870): R
- Zone of clearance ([1]; E. faecium strain 23227): 26 mm
- Interpretive standard (resistant/susceptible) ([1]; E. faecium strain 23227): S
- Zone of clearance ([1]; E. faecium strain 23230): 36 mm
- Interpretive standard (resistant/susceptible) ([1]; E. faecium strain 23230): S
- Zone of clearance ([1]; E. faecium strain 23668): 39 mm
- Interpretive standard (resistant/susceptible) ([1]; E. faecium strain 23668): S
- Zone of clearance ([1]; E. faecium strain 24169): 33 mm
- Interpretive standard (resistant/susceptible) ([1]; E. faecium strain 24169): S
- Zone of clearance ([1]; E. faecium strain RC63): 12 mm
- Interpretive standard (resistant/susceptible) ([1]; E. faecium strain RC63): R
